{"source": "paper PMC4956214", "about": "“Identification of Host Insulin Binding Sites on Schistosoma japonicum Insulin Receptors” (PLoS ONE, 2016)", "data": [{"molecular_target": "T1, human insulin (Homo sapiens, UniProt P01308)", "T1 construct": "human insulin was biotinylated using a NHS-PEO4-biotin kit; biotin (chemical label, NHS-PEO4-biotin)", "T1 sequence (P01308 25-54 limits assumed)": "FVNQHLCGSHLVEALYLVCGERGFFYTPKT", "T1 sequence (P01308 90-110 limits assumed)": "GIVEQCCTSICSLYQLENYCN", "assay": "Octet RED insulin binding assay (biotinylated human insulin on streptavidin biosensors)", "details": "Octet RED binding assays", "values": [{"sequence": "AYLIWIRILEDNPSEY [Analogue 16, peptide analogue from SjIR-2 FnIII-1]", "Specific binding to human insulin": "no specific binding"}, {"sequence": "GSLIIENGNCSGDLSTLLPNLTVIRNQVI [Analogue 2, peptide analogue from SjIR-1 L1 domain]", "Specific binding to human insulin": "no specific binding"}, {"sequence": "HEPKCHKVIEPITN [Analogue 8, peptide analogue from SjIR-1 FnIII-1]", "Specific binding to human insulin": "no specific binding"}, {"sequence": "IGIDESESIIETIC [Analogue 7, peptide analogue from SjIR-1 FnIII-1]", "Specific binding to human insulin": "no specific binding"}, {"sequence": "ILPVIVDEVVSLKSDTVG [Analogue 18, peptide analogue from SjIR-2 FnIII-2]", "Specific binding to human insulin": "no specific binding"}, {"sequence": "IPRDASLPFLKEVTGSLLVYDTEGPEDL [Analogue 14, peptide analogue from SjIR-2 L1]", "Specific binding to human insulin": "no specific binding"}]}]}
